# “Also recorded” adds a separate entry of the source.
# How the values were obtained:
# NCI-N87 cells [1] = experiment: Cell viability assessment (CellTiter-Glo); type: cell-based
# [2] = tested on: downstream EGFR signaling in MDA-MB-468 tumors; experiment: PD analysis of tumors (Western blot); type: in vivo, mouse; conditions: 75 mg/kg ip
# Experimental: For this purpose we used mice bearing MDA-MB-468 tumors (a triple-negative breast tumor with EGFR-overexpression). Because of the specific affinity of the provided Grp94 inhibitors for tumor Grp94, we performed PK/PD studies that are tailored for this purpose. In this PK/PD study we incorporated two time points, a 2 h and a 24 h time of sacrifice post-administration. The early time point is incorporated to test the biodistribution of the agent to the site of its action, the tumor; PU-WS13 was readily distributed to tumor mass with -850 μM noted in tumor at 2 h versus 100 μM in the plasma (FIG. 25A). […] The concentration of PU-WS13 in the tumor at 24 h post-administration of single dose of 75 mg/kg was 0.5 μM. […] We also analyzed the potential suppression by PU-WS13 of normal Grp94 functions. A “housekeeping” function for Grp94 was identified using a conditional knock-out mouse model; that study found a role for Grp94 in normal GI cells, i.e. regulation of the Wnt receptor LRP6 (Liu et al., Proc Natl Acad Sci USA. 2013 Apr. 23; 110(17):6877-82). […]
# The other half of tumor tissues were evaluated for changes in EGFR and other PD markers as established in our laboratory. […] After quantifying the protein concentrations by BCA, 25-100ug proteins were loaded into SDS-PAGE and subjected to immunoblotting.
# NCI-N87 cells [3] = experiment: Apoptosis assessment (Annexin V / 7AAD); type: cell-based
# Source text: (§1) Annexin V Apoptosis with 7-AAD has been specifically designed for the identification of apoptotic and necrotic cells. Annexin V (or Annexin A5) is a member of the annexin family of intracellular proteins that binds to phosphatidylserine (PS) in a calcium-dependent manner. PS is normally only found on the intracellular leaflet of the plasma membrane in healthy cells, but during early apoptosis, membrane asymmetry is lost and PS translocates to the external leaflet. Fluorochrome-labeled Annexin V can then be used to specifically target and identify apoptotic cells. Annexin V binding alone cannot differentiate between apoptotic and necrotic cells. To help distinguish between the necrotic and apoptotic cells 7-amino-actinomycin D (7-AAD) is used. Early apoptotic cells will exclude 7-AAD, while late stage apoptotic cells will stain positively, due to the passage of these dyes into the nucleus where they bind to DNA. 7-AAD (7-amino-actinomycin D) has a high DNA binding constant and is efficiently excluded by intact cells. It is useful for DNA analysis and dead cell discrimination during flow cytometric analysis. When excited by 488 laser light, 7-AAD fluorescence is detected in the far red range of the spectrum (650 nm long-pass filter).
# (§2) Cell cycle and apoptosis assessment. Cell cycle and apoptosis were assessed by flow cytometry after single staining with propidium iodide (PI, BD Pharmingen) or double staining with AnnexinV-FITC (BD Pharmingen) and 7AAD (BD Pharmingen), respectively. Specifically, for cell cycle analysis, cells were washed twice with cold PBS and fixed in 70% ethanol overnight at 4° C. Fixed cells were collected at 1800 rpm for 10 min and stained with PBS containing PI and DNase-free RNase A (Sigma-Aldrich) for 1 h at room temperature in the dark. DNA content was measured by BD LSRII flow cytometer and cell further analyzed using program of cell cycle analysis in FloJo (Ashland, OR). The chicken erythrocyte nuclei singlets (CEN, Biosure) were used as the reference. For apoptosis assessment, live cells were collected, washed twice with cold PBS, resuspended in Binding Buffer and stained with AnnexinV-FITC and 7AAD for 15 min at room temperature in the dark. Signals from FL1 and FL3 channels were collected by MACSQuant analyzer and further analyzed using FloJo. Early apoptosis was defined as AnnexinV+/7AAD−, and late apoptosis was observed as AnnexinV+/7AAD+.
# PANC-1 cells = experiment: Apoptosis assessment (Annexin V / 7AAD); type: cell-based
# Source text: as §1, §2
# OE19 cells = experiment: Apoptosis assessment (Annexin V / 7AAD); type: cell-based
# Source text: as §1, §2
# [4] = tested on: HER2 at the plasma membrane of SKBr3 cells; experiment: Immunofluorescence of HER2 architecture at the plasma membrane; type: cell-based
# Experimental: We next investigated the biological significance of the unique association of HER^2 with Grp94 at the plasma membrane of SKBr3 cells. Because the Grp94 inhibitors described here target the ATP-binding pocket of Grp94, they affect Grp94 chaperone activity. Therefore we hypothesized that Grp94 may act on HER^2 at the plasma membrane to stabilize the protein and to regulate its function.
# Immunofluorescence. Cells were seeded and grown onto culture slides (BD Falcon) for 24 hrs. After washing with cold PBS, cells were fixed by treating at 4° C. for 20 min with 4% paraformaldehyde in PBS, permeabilized with 0.1% Triton X-100 in PBS containing 10% FBS for 10 min, and blocked with 2% BSA for 1 hr. After washing for four times with PBS, primary antibodies were added onto the chambers and cell were incubated overnight at 4° C., washed again with PBS followed by incubation with the secondary antibody for 1 hr at room temperature. Cell were washed and then mounted and observed under microscope (Leica Upright Confocal SP5). The primary antibodies used in the assay are against: HER^2 (Zymed, 28004), Grp94 (Stressgen, SPA-850), Hsp70 (Stressgen, SPA-810), LAMP1-FITC (Abcam, ab25406), EEA1 (Abcam, ab70521), 58K Golgi-FITC (Abcam, ab27043) and Calnexin (BD, 610523).
# HEK293 cells = experiment: Toxicity to HEK293 cells; type: cell-based, human
smiles,measurement,setting,value
CC(C)NCCCn1c(Sc2cc(Cl)cc(Cl)c2)nc2c(N)ncnc21 [PU-WS13],sensitivity to Grp94 inhibition,NCI-N87 cells [1],highly susceptible
same,PD effect in tumor (p-AKT and p-ERK inhibition),[2],partial suppression of downstream EGFR signaling
same,cells exhibiting markers of early- and late-stage apoptosis,NCI-N87 cells [3],substantial increase
same,induction of apoptosis,PANC-1 cells,substantial increase; also recorded: more potent at killing cells through apoptosis
same,cells exhibiting markers of early- and late-stage apoptosis,OE19 cells,substantial increase
same,effect on HER2 architecture at the plasma membrane,[4],disruption of the circular architecture of HER^2 at the plasma membrane
same,toxicity to HEK293 cells,HEK293 cells,not toxic
